Experimental findings from US9833497B2, “Human originated EGF domain proteins and use of the same” (CHENGDU SOURCEBIO LIMITED-LIABILITY COMPANY, priority 2013, dated 2017) are described below.

Holding throughout (format): cell-based
For experiment [1], the system named is Proteus vulgaris. Description: MIC against Gram-negative bacteria: Proteus vulgaris. The following applies: for MIC P. vulgaris / MIC against P. vulgaris: 5×10^5 CFU/mL. The method, boiled down:
(§1)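 First, colonies from LB agar were grown in LB at 37° C, 185 rpm, to McFarland turbidity 0.5, then centrifuged and resuspended in fresh LB. Next, wells received 5×10^5 CFU/mL bacteria plus two-fold serially diluted EGF domain protein (triplicate). Finally, plates were shaken at 37° C and the no-growth concentration taken as MIC.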

Experiment [2] deals with Klebsiella pneumonia. Description: MIC against Gram-negative bacteria: Klebsiella pneumonia. The settings on record: for MIC K. pneumonia / MIC against K. pneumonia: 5×10^5 CFU/mL. A digest of the protocol:
as §1

Experiment [3] has as its system E. coli BL21. Description: MIC against Gram-negative bacteria: E. coli BL21. The following applies: for MIC E. coli BL21 / MIC against E. coli BL21: 5×10^5 CFU/mL. A digest of the protocol: as §1
In experiment [4] the test system is Enterobacter cloacae. Description: MIC against Gram-negative bacteria: Enterobacter cloacae. The following applies: for MIC E. cloacae / MIC against E. cloacae: 5×10^5 CFU/mL. The method, boiled down:
as §1

In experiment [5] the test system is Proteus mirabilis. Description: MIC against Gram-negative bacteria: Proteus mirabilis. The settings on record: for MIC P. mirabilis / MIC against P. mirabilis: 5×10^5 CFU/mL. A digest of the protocol:
as §1

In experiment [6] the test system is E. coli DH5α. Description: Antibacterial activity: MIC and growth curve against E. coli DH5α in 96-well plate. The settings on record: minimal inhibitory concentration against E. coli DH5α; 96-well plate, 5×10^5 CFU/mL, 37° C., judged after 8 h. The method, boiled down:
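Log-phase DH5α (OD600 about 0.5, 37° C, 185 rpm in LB) was pelleted, resuspended in fresh LB and seeded at 5×10^5 CFU/mL with recombinant protein at 50, 25 and 12.5 μg/mL (two-fold series), in triplicate. Plates were shaken at 175 rpm, 37° C, and OD600 was read every 30 min. MIC was the lowest concentration with no growth.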

The test system of experiment [7] is Citrobacter diversus. Description: MIC against Gram-negative bacteria: Citrobacter diversus. The settings on record: for MIC C. diversus / MIC against C. diversus: 5×10^5 CFU/mL. The method, boiled down: as §1
In experiment [8] the test system is Pseudomonas aeruginosa. Description: MIC against Gram-negative bacteria: Pseudomonas aeruginosa. The settings on record: for MIC P. aeruginosa / MIC against P. aeruginosa: 5×10^5 CFU/mL. A digest of the protocol: as §1
Experiment [9] concerns Aeromonas hydrophila. Description: MIC against Gram-negative bacteria: Aeromonas hydrophila. The following applies: for MIC A. hydrophila / MIC against A. hydrophila: 5×10^5 CFU/mL. The method, boiled down:
as §1

In experiment [10] the test system is Moraxella catarrhalis. Description: MIC against Gram-negative bacteria: Moraxella catarrhalis. The following applies: for MIC M. catarrhalis / MIC against M. catarrhalis: 5×10^5 CFU/mL. The method, boiled down: as §1
For experiment [11], the system named is Serratia marcescens. Description: MIC against Gram-negative bacteria: Serratia marcescens. The settings on record: for MIC S. marcescens / MIC against S. marcescens: 5×10^5 CFU/mL. A digest of the protocol: as §1
[12] abbreviates: 10 h cultivation at 37° C., two-fold serial dilution.

The MIC is the lowest concentration that inhibits growth of the organism. A low value points to greater potency. For the substance “PRT1099 (PSTVCGNEKTNLTCYNGGNCTEFQTELKCMCRPGFTGEWCE; listed as Homo sapiens)”, the “MIC P. vulgaris” value in experiment [1] (setting [12]) turned out to be 50 µg/mL. For the same substance, the “MIC K. pneumonia” value in [2] (setting [12]) was 50 µg/mL. Also, the “MIC E. coli BL21” value in experiment [3] (setting [12]) came to 50 µg/mL. In addition, the “MIC E. cloacae” value in experiment [4] (setting [12]) stood at 12.5 µg/mL. Moreover, the “MIC P. mirabilis” value in [5] (setting [12]) was 25 µg/mL. In addition, the MIC in experiment [6] came to 12.5 µg/mL. In [7] (setting [12]), the “MIC C. diversus” value was found to be 25 µg/mL. Besides, the “MIC P. aeruginosa” value in experiment [8] (setting [12]) was determined as 12.5 µg/mL. Further, the “MIC A. hydrophila” value in [9] (setting [12]) was 50 µg/mL. The “MIC M. catarrhalis” value in experiment [10] (setting [12]) was 12.5 µg/mL. In addition, the “MIC S. marcescens” value in experiment [11] (setting [12]) was 12.5 µg/mL.
Turning to “PRT505 (CECHVKGSHSAVCHLETGLCDCKPNVTGQQCDQCLHGYYGLDSGHGCRP; listed as Homo sapiens)”, the “MIC against P. vulgaris” value in experiment [1] (96-well plate, 37° C., 10 h) came to 25 µg/mL. Also, the “MIC against K. pneumonia” value in experiment [2] (96-well plate, 37° C., 10 h) was 12.5 µg/mL. The “MIC against E. coli BL21” value in [3] (96-well plate, 37° C., 10 h) was 12.5 µg/mL. Also, the “MIC against E. cloacae” value in experiment [4] (96-well plate, 37° C., 10 h) came to 50 µg/mL. Also, the “MIC against P. mirabilis” value in [5] (96-well plate, 37° C., 10 h) is 12.5 µg/mL. Besides, in experiment [6], the MIC was found to be 50 µg/mL. Also, the “MIC against C. diversus” value in experiment [7] (96-well plate, 37° C., 10 h) is 50 µg/mL. Besides, the “MIC against P. aeruginosa” value in experiment [8] (96-well plate, 37° C., 10 h) turned out to be 50 µg/mL. In addition, in experiment [9] (96-well plate, 37° C., 10 h), the “MIC against A. hydrophila” value is 12.5 µg/mL. Also, the “MIC against M. catarrhalis” value in experiment [10] (96-well plate, 37° C., 10 h) came to 25 µg/mL. Also, in experiment [11] (96-well plate, 37° C., 10 h), the “MIC against S. marcescens” value is 50 µg/mL.
For “PRT999 (PEDNCTCHHGHCQRSSCVCDVGWTGPECE; listed as Homo sapiens)”, the MIC in [1] (P. vulgaris, 10 h cultivation at 37° C.) was 25 µg/mL; in experiment [2] (K. pneumonia, 10 h cultivation at 37° C.), 12.5 µg/mL; in experiment [3] (E. coli BL21, 10 h cultivation at 37° C.) it was 50 µg/mL; in experiment [4] (E. cloacae, 10 h cultivation at 37° C.), 25 µg/mL; in experiment [5] (P. mirabilis, 10 h cultivation at 37° C.), 50 µg/mL; in [6], 12.5 µg/mL. The MIC in experiment [7] (C. diversus, 10 h cultivation at 37° C.) was 12.5 µg/mL; in experiment [8] (P. aeruginosa, 10 h cultivation at 37° C.), 25 µg/mL; in experiment [9] (A. hydrophila, 10 h cultivation at 37° C.) it was 50 µg/mL; in experiment [10] (M. catarrhalis, 10 h cultivation at 37° C.), 25 µg/mL; in experiment [11] (S. marcescens, 10 h cultivation at 37° C.), 12.5 µg/mL.
Consider “PRT1196 (DVDLCEPSPCRNGARCYNLEGDYYCACPDDFGGKNCS; listed as Homo sapiens)”, for which the “MIC against P. vulgaris” value in experiment [1] (Proteus vulgaris, 96-well plate, 37° C., 10 h) was found to be 25 µg/mL. Also, the “MIC against K. pneumonia” value in experiment [2] (Klebsiella pneumonia, 96-well plate, 37° C., 10 h) came to 25 µg/mL. The “MIC against E. coli BL21” value in experiment [3] (E. coli BL21, 96-well plate, 37° C., 10 h) turned out to be 50 µg/mL. For the same substance, in [4] (Enterobacter cloacae, 96-well plate, 37° C., 10 h), the “MIC against E. cloacae” value is 25 µg/mL. The “MIC against P. mirabilis” value in [5] (Proteus mirabilis, 96-well plate, 37° C., 10 h) came to 12.5 µg/mL. The MIC in experiment [6] was determined as 12.5 µg/mL. For the same substance, the “MIC against C. diversus” value in [7] (Citrobacter diversus, 96-well plate, 37° C., 10 h) was 50 µg/mL. Besides, the “MIC against P. aeruginosa” value in experiment [8] (Pseudomonas aeruginosa, 96-well plate, 37° C., 10 h) worked out at 12.5 µg/mL. Further, the “MIC against A. hydrophila” value in [9] (Aeromonas hydrophila, 96-well plate, 37° C., 10 h) was found to be 25 µg/mL. For the same substance, the “MIC against M. catarrhalis” value in experiment [10] (Moraxella catarrhalis, 96-well plate, 37° C., 10 h) was found to be 25 µg/mL. Also, the “MIC against S. marcescens” value in experiment [11] (Serratia marcescens, 96-well plate, 37° C., 10 h) was 50 µg/mL.
For the substance “PRT736 (DVNECAEEGYCSQGCTNSEGAFQCWCETGYELRPDRRSCK; listed as Homo sapiens)”, the “MIC P. vulgaris” value in experiment [1] (96-well plate, 37° C., 10 h) came out at 25 µg/mL. Moreover, the “MIC K. pneumonia” value in experiment [2] (96-well plate, 37° C., 10 h) is 50 µg/mL. In addition, the “MIC E. coli BL21” value in [3] (96-well plate, 37° C., 10 h) stood at 25 µg/mL. Also, in [4] (96-well plate, 37° C., 10 h), the “MIC E. cloacae” value amounted to 50 µg/mL. The “MIC P. mirabilis” value in [5] (96-well plate, 37° C., 10 h) is 12.5 µg/mL. The substance also came in with an MIC in experiment [6] of 12.5 µg/mL. For the same substance, the “MIC C. diversus” value in experiment [7] (96-well plate, 37° C., 10 h) is 12.5 µg/mL. In addition, in experiment [8] (96-well plate, 37° C., 10 h), the “MIC P. aeruginosa” value came to 50 µg/mL. Further, the “MIC A. hydrophila” value in [9] (96-well plate, 37° C., 10 h) came out at 25 µg/mL. Besides, the “MIC M. catarrhalis” value in experiment [10] (96-well plate, 37° C., 10 h) turned out to be 25 µg/mL. Also, the “MIC S. marcescens” value in experiment [11] (96-well plate, 37° C., 10 h) is 50 µg/mL.
